In US11974990B2, “TXNIP-TRX complex inhibitors and methods of using the same” (City of Hope, priority 2018, dated 2024):
Where two headings read alike, the source gives them in different places.

Tests used:
TXNIP mRNA = TXNIP mRNA expression (RT-PCR) in THP1 cells under 25 mM glucose; assay type: cell-based, human; conditions: THP1, 25 mM glucose, 5 uM compound, 72 h / three days (FIG. 13)
Experimental: FIGS. 9A-9B. FIG. 9A. […] THP1 cells were cultured in 25 mM glucose with the indicated concentrations of C1 for 72 h. Cell were collected for total RNA preparation. RT-PCR were performed and data shown are the mean+SEM from triplicates. Statistical analysis was performed using one-way ANOVA, *<0.0001. FIG. 9B. […] THP1 cells were cultured in 25 mM glucose and C1 (uM) as indicated for 72 hours and collected for total RNA preparation. RT-PCR was performed. Data shown are the mean+SEM from triplicates. Statistical analysis was performed using one-way ANOVA: *<0.02; **<0.0001.
FIG. 13. C1 analogs affects TXNIP mRNA expression in THP1 cells. THP1 cells were cultured in 25 mM glucose with 5 uM of compounds for 72 h. Total RNA was collected and RT-PCR was performed in triplicate and data shown are the mean+SEM. Statistical analysis was performed using one-way ANOVA: *<0.0001.
RNA extraction and quantitative RT-PCR. RNA was extracted using the Direct-zol™ RNA MiniPrep Plus (Zymo Research). […] Diluted cDNA was quantified using real-time PCR performed with Power SYBR Green qPCR MasterMix (Applied Biosystem) and 7500 real-time PCR system (Applied Biosystems). […]
RNA extraction and quantitative RT-PCR. […] Diluted cDNA was quantified using real-time PCR performed with Power SYBR Green qPCR MasterMix (Applied Biosystem) and 7500 real-time PCR system (Applied Biosystems). […]

TXNIP-TRX complex [1] = molecular target: T1, TXNIP-TRX complex (Homo sapiens, UniProt Q9H3M7); experiment: Co-IP of TXNIP with TRX in THP1 monocytes treated with compounds under high glucose; assay type: cell-based; conditions: THP1 cells, compounds added to cells in culture overnight, glucose to 25 mM, 72-96 h; anti-TRX IP
T1 construct: Co-immunoprecipitation (Co-IP) of TXNIP with TRX in THP 1 monocytes cells treated with compounds under high glucose condition; endogenous in cells; host or cells: THP1 human monocytes cultured in 25 mM glucose
T1 sequence (Q9H3M7 1-391): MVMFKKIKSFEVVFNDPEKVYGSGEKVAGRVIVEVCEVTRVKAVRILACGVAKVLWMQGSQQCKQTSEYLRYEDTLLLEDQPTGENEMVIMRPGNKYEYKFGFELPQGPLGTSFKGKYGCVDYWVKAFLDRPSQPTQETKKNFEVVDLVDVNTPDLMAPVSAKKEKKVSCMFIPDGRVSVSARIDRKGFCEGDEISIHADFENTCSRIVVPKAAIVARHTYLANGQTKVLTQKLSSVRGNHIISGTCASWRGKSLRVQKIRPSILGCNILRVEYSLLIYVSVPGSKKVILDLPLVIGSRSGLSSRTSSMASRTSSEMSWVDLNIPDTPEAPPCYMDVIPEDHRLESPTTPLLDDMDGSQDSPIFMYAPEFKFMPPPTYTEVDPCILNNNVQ
Experimental: FIGS. 4A-4B. Co-IP with anti-TRX in THP 1 cells treated with compounds under high glucose condition. THP1 cells were treated by 10 uM compounds over night, then glucose was added up to 25 mM. The cells were cultured for 72-96 h. Cell extracts were prepared using cell extract buffer (Thermo Fisher Scientific) and Co-IP were performed with mouse anti-TRX (abcam).
Assay 1: Co-immunoprecipitation (Co-IP) of TXNIP with TRX in THP 1 monocytes cells treated with compounds under high glucose condition. In this assay, we looked for compounds that can interfere with the interaction between TXNIP and TRX in THP-1 monocytes treated with HG. So here compounds are added to cells in culture. […] So we picked the candidates only if the results are repeatable.
Co-IP with compounds treated THP1 under high glucose condition. THP1 cells were treated with compounds (2.5 uM) overnight and glucose was add to 25 mM and culture for 3-5 days, then coIP were carried using co-IP protocol.
(§1) 1. Transfer the cultured cells from the culture dish to a 15-mL conical tube. 2. Centrifuge at 500×g for 2 min at 4° C. and remove the supernatant. 3. Wash with ice-cold PBS and centrifuge at 500×g for 2 min at 4° C. Remove the supernatant. 4. Repeat Step 3 twice.
5. Resuspend the cell pellet in ice-cold cell lysis buffer (1 mL per 1×10^7 cells) and incubate on ice for 10 min. 6. Sonicate cells in ice bath three times for 5 second pulses each. 7. Centrifuge at 13,000×g at 4° C. for 10 min, and transfer the supernatant to a fresh tube. Store the tube on ice for further use, or for long storage at −80° C.
8. Resuspend the magnetic beads by pipetting up and down for several times. 9. Transfer 20 μL of bead slurry to a fresh tube. Place the tube in a magnetic separation rack […]. Carefully remove the supernatant once the solution is clear. 10. […]
(§2) Note: Pre-clearing the lysate is recommended to reduce the non-specific binding. However, if the protein is detected by western blotting, pre-clearing may not be necessary unless a contaminating protein is interfering with visualization of the protein of interest. […]

TXNIP-TRX complex [2] = molecular target: T1, TXNIP-TRX complex; experiment: Co-IP using extracts from high glucose treated THP1 cells in the presence of compounds; assay type: biochemical; conditions: extracts of THP1 cells treated with 25 mM glucose 3 days; compounds added to extract (5 uM)
Experimental: Assay 2: Co-IP using extracts from THP 1 cells treated high glucose and in the presence of compounds. In this assay, TXNIP is already highly expressed (because the cells are treated with HG), we assume there is high concentration of TXNIP/TRX complexes in the cell extract. Co-IPs were done in these extracts through adding TRX antibody and compounds. If a compound is able to break the (pre-formed) TXNIP/TRX complex, there will be a reduced signal (band intensity) in the assay.
Co-IP with THP1 high glucose treated extract in the presence of the compounds. THP1 cells were treated with 25 mM glucose for 3 days, the cell extract were prepared. Them 300 ul extract were used for TP. Compounds were added to 5 uM Co-IP were followed according to the Co-IP protocol.
as §1
5. Resuspend the cell pellet in ice-cold cell lysis buffer (1 mL per 1×10^7 cells) and incubate on ice for 10 min. 6. […]
as §2

TXNIP = conditions: as reported in the literature, cited from earlier work

SMILES | TXNIP mRNA expression (TXNIP mRNA) | HG-induced TXNIP-TRX co-IP band intensity (TXNIP-TRX complex [1]) | effect on pre-formed TXNIP/TRX complex (co-IP band intensity) (TXNIP-TRX complex [2]) | TXNIP expression (TXNIP) | TXNIP expression (TXNIP; listed as Metformin)
CC(=O)Nc1ccc(NC(=O)C(C)N2C(=O)c3ccncc3C2=O)cc1 (centres unmarked) [Compound A31] | displayed significant inhibitory effects on TXNIP mRNA expression | – | – | – | –
CN(C)C(=N)N=C(N)N [metformin, reference compound] | – | reduces the intensity of the band showing TXNIP-TRX binding | does not have any effect on TXNIP/TRX complex | reduce TXNIP expression | can reduce the expression of TXNIP through the AMPK pathway
